Reference: ChEMBL document CHEMBL4811227, “Biosynthesis of Nonimmunosuppressive ProlylFK506 Analogues with Neurite Outgrowth and Synaptogenic Activity” (J Nat Prod, 2021)
Calls of active or inactive are those of the source. The rule behind the calls is not given here.

Experiments:
[1] = test system: CD4+ve Th; test: Immunosuppressive activity in C57BL/6J mouse CD4+ve T cells assessed as inhibition of CD3/CD28-stimulated CD4+ve T cell proliferation incubated for 72 hrs by CellTrace-violet staining based flow cytometry analysis; type: functional
[2] = test system: CD4+ve Th; test: Immunosuppressive activity in C57BL/6J mouse CD4+ve T cells assessed as inhibition of CD3/CD28-stimulated CD4+ve T cell proliferation by measuring fold reduction incubated for 72 hrs by CellTrace-violet staining based flow cytometry analysis relative to FK506; type: functional
[3] = test system: Primary hippocampal neuron; test: Neurotrophic activity in ICR mouse primary hippocampal neuron assessed as induction of neurite outgrowth at 1 ng/ml measured after 48 hrs by photographic imaging analysis; type: functional, tissue-based
[4] = Neurotrophic activity in ICR mouse primary hippocampal neuron assessed as increase in relative spontaneous excitatory postsynaptic current frequency at -70 mV holding potential at 1 ng/ml incubated for 10 to 14 days in presence of bicuculline methiodide; type: functional; conditions: time 10-14 day

Structure (SMILES): CCC[C@@H]1/C=C(\C)C[C@H](C)C[C@H](OC)[C@H]2O[C@@](O)(CC(=O)N3CCC[C@H]3C(=O)O[C@H](/C(C)=C/[C@@H]3CC[C@@H](O)[C@H](O)C3)[C@H](C)[C@@H](O)CC1=O)[C@H](C)C[C@@H]2OC
- IC50 [1]: 7.27 µM
- fold change (FC) [2]: 220000
- Activity [3]: Active
- Activity [4]: 2.63

Structure (SMILES): C=CC[C@@H]1/C=C(\C)C[C@H](C)C[C@H](OC)[C@H]2O[C@@](O)(C(=O)C(=O)N3CCCC[C@H]3C(=O)O[C@H](/C(C)=C/[C@@H]3CC[C@@H](O)[C@H](OC)C3)[C@H](C)[C@@H](O)CC1=O)[C@H](C)C[C@@H]2OC [TACROLIMUS ANHYDROUS]
- IC50 [1]: 3.4e-05 µM
- Activity [4]: 2.61

Structure (SMILES): CCC[C@@H]1/C=C(\C)C[C@H](C)C[C@H](OC)[C@H]2O[C@@](O)(C(=O)C(=O)N3CCC[C@H]3C(=O)O[C@H](/C(C)=C/[C@@H]3CC[C@@H](O)[C@H](OC)C3)[C@H](C)[C@@H](O)CC1=O)[C@H](C)C[C@@H]2OC
- IC50 [1]: 3.97 µM
- fold change (FC) [2]: 120000
- Activity [3]: Active
- Activity [4]: 3.29
